According to US20110162981A1, “METHODS AND COMPOSITIONS FOR PREVENTING, REDUCTING OR TREATING DAMAGE CAUSED BY ISCHEMIA AND SCHEMIA-LIKE CONDITIONS” (priority 2008, published 2011):

Test system: ischemia-induced brain lesion (middle cerebral artery occlusion)
Assay: MCAO/reperfusion stroke model, TTC staining lesion volume
Assay type: in vivo, Sprague Dawley rats
Details: ovariectomized female SD rats, 1 hr MCAO

Compound: C[C@]12CC[C@@H]3c4ccc(O)cc4CC[C@H]3[C@@H]1CC[C@@H]2O [17 β-Estradiol, 17-beta estradiol]
- Ischemic Lesion Volume (means, mm^3) (24 hours after onset of reperfusion, TTC staining, mean): 147.4 mm^3
- reduction of ischemia-induced brain lesion compared with control rats (24 hours reperfusion, vs control diet rats): 48%
